# According to US20060223868A1, “Heterocyclic amides exhibiting and inhibitory activity at the vanilloid receptor 1(vr1)” (AstraZeneca AB, priority 2003, published 2006):
# Target: T1, hVR1 (Homo sapiens, UniProt Q8NER1)
# T1 construct: expressed in transfected cells
# Assay: hVR1 FLIPR (Fluorometric Image Plate Reader) screening assay, IC50 determination
# Assay type: cell-based
# Conditions: transfected CHO cells stably expressing hVR1
# Method: 1. hVR1 FLIPR (Fluorometric Image Plate Reader) Screening Assay
# Transfected CHO cells, stably expessing hVR1 (15,000 cells/well) are seeded in 50 ul media in a black clear bottom 384 plate (Greiner) and grown in a humidified incubator (37° C., 2% CO2), 24-30 hours prior to experiment.
# Subsequently, the media is removed from the cell plate by inversion and 2 μM Fluo-4 is added using a multidrop (Labsystems). Following the 40 minutes dye incubation in the dark at 37° C. and 2% CO2, the extracellular dye present is washed away using an EMBLA (Scatron), leaving the cells in 40 ul of assay buffer (1×HBSS, 10 mM D-Glucose, 1 mM CaCl2, 10 mM HEPES, 10×7.5% NaHCO3 and 2.5 mM Probenecid).
# FLIPR Assay—IC50 Determination Protocol
# For IC50 determinations the fluorescence is read using FLIPR filter 1 (em […]). A cellular baseline recording is taken for 30 seconds, followed by a 20 μl addition of 10, titrated half-log concentrations of the test compound, yielding cellular concentration ranging from 3 μM to 0.1 nM. Data is collected every 2 seconds for a further 5 minutes prior to the addition of a VR1 agonist solution: either 50 nM solution of capsaicin or MES (2-[N-morpholino) ethanesulfonic acid) buffer (pH 5.2), by the FLIPR pipettor. The FLIPR continues to collect data for a further 4 minutes. Compounds having antagonistic properties against the hVR1 will inhibit the increase in intracellular calcium in response to the capsaicin addition. This consequently leading to a reduction in fluorescence signal and providing a reduced fluorescence reading, compared with no compound, buffer controls. Data is exported by the FLIPR program as a sum of fluorescence calculated under the curve upon the addition of capsaicin. Maximum inhibition, Hill slope and IC50 data for each compound are generated.
# T1 sequence (Q8NER1 whole entry): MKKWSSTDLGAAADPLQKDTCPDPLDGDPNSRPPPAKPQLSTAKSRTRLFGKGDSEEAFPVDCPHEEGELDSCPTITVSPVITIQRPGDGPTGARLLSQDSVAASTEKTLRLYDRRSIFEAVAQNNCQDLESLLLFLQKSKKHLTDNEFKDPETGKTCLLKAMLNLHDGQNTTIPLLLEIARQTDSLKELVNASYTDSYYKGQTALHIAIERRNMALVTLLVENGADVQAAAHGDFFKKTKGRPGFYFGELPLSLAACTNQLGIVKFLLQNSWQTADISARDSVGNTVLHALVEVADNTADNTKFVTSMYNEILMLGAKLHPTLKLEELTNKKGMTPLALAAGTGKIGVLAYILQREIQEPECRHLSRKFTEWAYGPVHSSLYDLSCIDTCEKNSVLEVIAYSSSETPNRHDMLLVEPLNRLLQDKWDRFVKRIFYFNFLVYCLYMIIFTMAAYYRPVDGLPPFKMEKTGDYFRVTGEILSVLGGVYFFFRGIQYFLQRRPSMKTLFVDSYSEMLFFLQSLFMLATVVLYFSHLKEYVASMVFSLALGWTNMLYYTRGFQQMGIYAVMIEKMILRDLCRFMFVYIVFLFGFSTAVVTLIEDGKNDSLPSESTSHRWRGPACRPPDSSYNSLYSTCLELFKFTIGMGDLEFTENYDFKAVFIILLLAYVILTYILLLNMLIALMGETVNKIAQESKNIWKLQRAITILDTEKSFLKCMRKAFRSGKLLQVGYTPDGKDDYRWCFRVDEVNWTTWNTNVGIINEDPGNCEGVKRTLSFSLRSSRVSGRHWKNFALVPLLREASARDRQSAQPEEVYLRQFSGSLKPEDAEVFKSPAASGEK
IC50 (agonist H+/MES buffer (pH 5.2)) [nM],IC50 (agonist capsaicin) [nM],SMILES
60,10,"O=C(Nc1ccc2sc(CO)nc2c1)c1ccc(Br)cc1 [Example 2, 4-Bromo-N-[2-(hydroxymethyl)-1,3-benzothiazol-5-yl]benzamide]"
45,50,"CC(C)Oc1ccc(C(=O)Nc2ccc3sc(CO)nc3c2)cc1 [Example 19, N-[2-(Hydroxymethyl)-1,3-benzothiazol-5-yl]-4-isopropoxybenzamide]"
,200,"CC(O)c1nc2cc(NC(=O)c3ccc(C(C)(C)C)cc3)ccc2s1 (centres unmarked) [Example 71, 4-tert-Butyl-N-[2-(1-hydroxyethyl)-1,3-benzothiazol-5-yl]benzamide]"
